For this assay, the system named is chorioallantoic membrane (CAM) vascularization. The assay is described as follows: Treatments on the chorioallantoic membrane (CAM), fluorescein angiography. The format is in vivo, chicken embryo. As to conditions: impregnated sponge on CAM at ED9; oligopeptide 250 μg/mL (9 hours), VEGF 10 ng/mL. The text has this:
In fact, TSP-1 is known for inducing the apoptosis of endothelial cells. […] It is also a decisive process under certain physiological and pathological conditions (cancers in particular). This mechanism is controlled by numerous factors having either an inhibitor potential or an activator. So as to evaluate the main properties of these in vivo factors, the most common model is the CAM (chorioallantoic membrane) model from the chicken embryo (Ribatti et al., 2000). It offers the advantage of making it possible to test the pro- or anti-angiogenic factors during an active angiogenesis phase between the embryonic stages 4j and 10j. The major effects of the various molecules can therefore be evaluated in vivo. The model of the CAM can also be used in experimental tumor development. The grafting of human cancer cells onto the surface of the CAM is carried out in the 9-day embryonic stage. Three days after the grafting at ED12, the formation of a tumor is visible at the surface of the CAM. The latter can be treated topically during the 48 hours that follow this stage, and the tumors are sampled at ED14j. The fertilized eggs (Haas Poultry Farm, Strasbourg, France) are kept for 24 hours at 18° C. before the incubation is started up. […] The embryonic stages are determined from tables of Hamburger and Hamilton (H and H, 1951). […]

With VEGF, the “Vascularization / microvascularization of the CAM (in words)” value is “the microvascularization is dense and comprises numerous vascular branches”.

These data come from patent US20190255144A1, “SPECIFIC OLIGOPEPTIDES AS ANTI-ANGIOGENIC DRUGS” (NEURONAX, priority 2014, published 2019).
